# Measured values published in ChEMBL document CHEMBL5316301, “Dual Nicotinamide Phosphoribosyltransferase (NAMPT) and Indoleamine 2,3-Dioxygenase 1 (IDO1) Inhibitors for the Treatment of Drug-Resistant Nonsmall-Cell Lung Cancer” (J Med Chem, 2023).
# The source made the active and inactive calls. The rule behind the calls is not given here.
# Legend:
# [1] = target: T1, Indoleamine 2,3-dioxygenase 1 (Homo sapiens, UniProt P14902); test: Inhibition of human recombinant IDO1 assessed as reduction in N-formylkynurenine formation using L-tryptophan as substrate preincubated for 30 mins followed by substrate addition and measured after 10 mins by SpectraMax microplate reader analysis
# T1 sequence (P14902 whole entry): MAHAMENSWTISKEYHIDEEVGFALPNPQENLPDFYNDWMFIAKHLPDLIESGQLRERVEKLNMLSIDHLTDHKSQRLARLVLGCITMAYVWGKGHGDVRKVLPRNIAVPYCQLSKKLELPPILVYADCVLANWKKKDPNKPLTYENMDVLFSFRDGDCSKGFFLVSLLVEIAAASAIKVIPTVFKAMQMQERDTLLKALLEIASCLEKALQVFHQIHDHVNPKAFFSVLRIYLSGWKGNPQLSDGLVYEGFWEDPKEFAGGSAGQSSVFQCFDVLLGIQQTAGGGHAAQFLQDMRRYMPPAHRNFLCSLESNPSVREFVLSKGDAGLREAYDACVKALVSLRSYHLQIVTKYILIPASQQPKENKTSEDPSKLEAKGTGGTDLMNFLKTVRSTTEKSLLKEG
# [2] = target: T1, Indoleamine 2,3-dioxygenase 1; test: Inhibition of human recombinant IDO1 in human HeLa cells assessed as reduction in N-formylkynurenine formation using L-tryptophan as substrate preincubated for 24 hrs followed by substrate addition and measured after 30 mins; assay type: cell-based
# [3] = target: Nicotinamide phosphoribosyltransferase (Homo sapiens, UniProt P43490); test: Inhibition of recombinant NAMPT (unknown origin) incubated for 60 mins by SpectraMax microplate reader analysis
# Nicotinamide phosphoribosyltransferase, sequence (P43490 whole entry): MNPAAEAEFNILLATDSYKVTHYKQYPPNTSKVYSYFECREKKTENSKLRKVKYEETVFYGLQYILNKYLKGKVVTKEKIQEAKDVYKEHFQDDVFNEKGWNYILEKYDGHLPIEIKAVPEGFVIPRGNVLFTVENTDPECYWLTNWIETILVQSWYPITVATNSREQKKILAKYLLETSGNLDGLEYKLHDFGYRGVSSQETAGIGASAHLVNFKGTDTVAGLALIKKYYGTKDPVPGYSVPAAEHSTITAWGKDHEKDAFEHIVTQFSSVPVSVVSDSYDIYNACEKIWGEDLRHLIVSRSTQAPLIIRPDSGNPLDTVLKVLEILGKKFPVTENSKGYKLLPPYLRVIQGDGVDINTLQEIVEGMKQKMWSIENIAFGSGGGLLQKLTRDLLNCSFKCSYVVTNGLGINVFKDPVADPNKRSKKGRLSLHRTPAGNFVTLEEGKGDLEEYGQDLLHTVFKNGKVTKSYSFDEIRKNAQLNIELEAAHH
# A549 [4] = test: Antiproliferative activity against NAMPT inhibitor-resistant A549 cells assessed as reduction in cell viability in presence of NMN and L-tryptophan measured for 48 hrs by CCK-8 assay; assay type: functional, cell-based; details: Homo sapiens
# A549 [5] = test: Antiproliferative activity against NAMPT inhibitor-resistant A549 cells assessed as reduction in cell viability in presence of NMN/L-tryptophan/QA measured for 48 hrs by CCK-8 assay; assay type: functional, cell-based; details: Homo sapiens
# A549 [6] = test: Inhibition of colony formation in NAMPT inhibitor-resistant A549 cells […] by crystal violet staining analysis; assay type: functional, cell-based; details: Homo sapiens, dose 5-15 µM
# A549 [7] = test: Downregulation of NAD+ level in NAMPT inhibitor-resistant A549 cells at 10 uM measured for 24 hrs; assay type: functional, cell-based; details: Homo sapiens
# A549 [8] = test: Downregulation of NAD+ level in NAMPT inhibitor-resistant A549 cells at 10 uM measured for 24 hrs in presence of NMN/L-tryptophan/QA; assay type: functional, cell-based; details: Homo sapiens
# A549 [9] = test: Induction of ROS production in NAMPT inhibitor-resistant A549 cells assessed as ROS accumulation incubated for 24 hrs by DCFH-DA staining based flow cytometry analysis; assay type: functional, cell-based; details: Homo sapiens, dose 5-15 µM
# A549 [10] = test: Induction of ROS production in NAMPT inhibitor-resistant A549 cells assessed as ROS accumulation at 5 to 15 uM incubated for 24 hrs in presence of NAC by DCFH-DA staining based flow cytometry analysis; assay type: functional, cell-based; details: Homo sapiens, dose 5-15 µM
# A549 [11] = test: Antiproliferative activity against NAMPT inhibitor-resistant A549 cells assessed as reduction in cell viability in presence of NAC measured for 48 hrs by CCK-8 assay; assay type: functional, cell-based; details: Homo sapiens
# Danio rerio [12] = species: Danio rerio; test: Induction of ROS production in zebra fish embryos assessed as increase in green fluorescence at 10 uM measured for 24 hrs by DCFH-DA staining based inverted microscopic analysis; assay type: functional
# Danio rerio [13] = species: Danio rerio; test: Induction of ROS production in zebra fish embryos assessed as increase in green fluorescence at 5 uM measured for 24 hrs by DCFH-DA staining based inverted microscopic analysis; assay type: functional
# A549 [14] = test: Antimigratory activity against NAMPT inhibitor-resistant A549 cells assessed as inhibition of cell migration measured after 24 hrs by crystal violet staining based microscopic analysis; assay type: functional; details: Homo sapiens, dose 5-15 µM
# A549 [15] = test: Antimigratory activity against NAMPT inhibitor-resistant A549 cells assessed as decrease in Snail expression incubated 24 hrs by Western blot analysis; assay type: functional, cell-based; details: Homo sapiens, dose 5-15 µM
# A549 [16] = test: Antimigratory activity against NAMPT inhibitor-resistant A549 cells assessed as decrease in slug expression incubated 24 hrs by Western blot analysis; assay type: functional, cell-based; details: Homo sapiens, dose 5-15 µM
# A549 [17] = test: Downregulation of Smad3 expression in NAMPT inhibitor-resistant A549 cells at 5 to 15 uM measured for 24 hrs; assay type: functional, cell-based; details: Homo sapiens, dose 5-15 µM
# A549 [18] = test: Effect on intracellular lipid level in NAMPT inhibitor-resistant A549 cells measured for 24 hrs by oil red staining based microscopic analysis; assay type: functional, cell-based; details: Homo sapiens
# A549 [19] = test: Effect on intracellular lipid level in NAMPT inhibitor-resistant A549 cells measured for 24 hrs by nile red staining based microscopic analysis; assay type: functional, cell-based; details: Homo sapiens
# A549 [20] = test: Downregulation of NAMPT expression in NAMPT NAMPT inhibitor-resistant A549 cells measured for 24 hrs by Western blot analysis; assay type: functional, cell-based; details: Homo sapiens, dose 5-10 µM
# A549 [21] = test: Downregulation of IDO1 expression in NAMPT inhibitor-resistant A549 cells measured for 24 hrs by Western blot analysis; assay type: functional, cell-based; details: Homo sapiens, dose 5-10 µM
# A549 [22] = test: Downregulation of IDO1 expression in NAMPT inhibitor-resistant A549 cells measured for 12 hrs in presence of cycloheximide by Western blot analysis; assay type: functional, cell-based; details: Homo sapiens
# A549 [23] = test: Downregulation of IDO1 expression in NAMPT inhibitor-resistant A549 cells measured for 12 hrs in presence of MG-132 by Western blot analysis; assay type: functional, cell-based; details: Homo sapiens
# A549 [24] = test: Antimigratory activity against NAMPT inhibitor-resistant A549 cells assessed as reduction in cell migration at 5 uM incubated for 24 hrs in presence of taxol by inverted microscopic analysis; assay type: functional, cell-based; details: Homo sapiens
# [25] = Oral bioavailability in Sprague-Dawley rat at 25 mg/kg; assay type: ADME, organism-based; details: in vivo
# [26] = AUC in Sprague-Dawley rat at 25 mg/kg, po; assay type: ADME, organism-based; set-up: dose 25 mg/kg, route po; details: in vivo
# [27] = Clearance in Sprague-Dawley rat at 5 mg/kg, iv; assay type: ADME, organism-based; details: in vivo
# [28] = Apparent volume of distribution in Sprague-Dawley rat at 5 mg/kg, iv; assay type: ADME, organism-based; details: in vivo, read-out: Vz
# A549 [29] = test: Antitumor activity against NAMPT inhibitor-resistant A549 cells xenografted in athymic nude mouse assessed as tumor growth inhibition at 50 mg/kg, po bid measured on day 21 by caliper method; assay type: functional, Homo sapiens; details: A549, 504 h, time 21 day, read-out: TGI
# A549 [30] = test: Antitumor activity against NAMPT inhibitor-resistant A549 cells xenografted in athymic nude mouse assessed as tumor growth inhibition at 100 mg/kg, po bid measured on day 21 by caliper method; assay type: functional, Homo sapiens; details: A549, 504 h, time 21 day, read-out: TGI
# A549 [31] = test: Antitumor activity against NAMPT inhibitor-resistant A549 cells xenografted in athymic nude mouse assessed as tumor growth inhibition at 200 mg/kg, po bid measured on day 21 by caliper method; assay type: functional, Homo sapiens; details: A549, 504 h, time 21 day, read-out: TGI
# A549 [32] = test: Antitumor activity against NAMPT inhibitor-resistant A549 cells xenografted in athymic nude mouse assessed as tumor growth inhibition at 100 mg/kg, po bid measured on day 21 in presence of taxol by caliper method; assay type: functional, Homo sapiens; details: A549, 504 h, time 21 day, read-out: TGI
# A549 [33] = test: Antitumor activity against NAMPT inhibitor-resistant A549 cells xenografted in athymic nude mouse assessed as reduction in tumor size at 50 to 200 mg/kg, po bid measured on day 21 in presence of taxol by caliper method; assay type: functional, organism-based; details: Homo sapiens, dose 50-200 mg/kg, time 21.0 day
# [34] = Toxicity in athymic nude mouse xenografted with NAMPT inhibitor-resistant A549 cells assessed as change in body weight at 50 to 200 mg/kg, po measured on day 21; assay type: organism-based; details: in vivo, 504 h, dose 50-200 mg/kg, time 21 day
# [35] = Toxicity in athymic nude mouse xenografted with NAMPT inhibitor-resistant A549 cells assessed as mortality at 50 to 200 mg/kg, po measured on day 21; assay type: organism-based; details: in vivo, 504 h, dose 50-200 mg/kg, time 21 day
# A549 [36] = test: Antitumor activity against NAMPT inhibitor-resistant A549 cells xenografted in athymic nude mouse at 100 to 200 mg/kg, po measured for 14 days in presence of epacadostat; assay type: functional, organism-based; details: Homo sapiens, dose 100-200 mg/kg, time 14.0 day
# A549 [37] = test: Antitumor activity against NAMPT inhibitor-resistant A549 cells xenografted in athymic nude mouse at 100 to 200 mg/kg, po measured for 14 days in presence of FK866; assay type: functional, organism-based; details: Homo sapiens, dose 100-200 mg/kg, time 14.0 day
# A549 [38] = test: Antitumor activity against NAMPT inhibitor-resistant A549 cells xenografted in athymic nude mouse at 100 mg/kg, po measured for 14 days in presence of epacadostat; assay type: functional, organism-based; details: Homo sapiens, time 14.0 day
# A549 [39] = test: Antitumor activity against NAMPT inhibitor-resistant A549 cells xenografted in athymic nude mouse at 100 mg/kg, po measured for 14 days in presence of FK866; assay type: functional, organism-based; details: Homo sapiens, time 14.0 day
# A549 [40] = test: cells; details: Homo sapiens, A549, 48 h
# A549 [41] = test: Antimigratory activity against NAMPT inhibitor-resistant A549 cells assessed as reduction in cell migration at 40 uM incubated for 24 hrs in presence of FK866 by inverted microscopic analysis; assay type: functional, cell-based; details: Homo sapiens
# A549 [42] = test: cells; details: Homo sapiens, A549, 48 h; remark: listed apart in the source
smiles,measurement,setting,value
O=C(NCCCNc1nonc1/C(=N/O)Nc1ccc(F)c(Br)c1)c1ccc2nccn2c1,IC50,[1],> 1000 nM
same,IC50,[2],> 1000 nM
O=C(NCCCCNc1nonc1/C(=N/O)Nc1ccc(F)c(Br)c1)c1ccc2nccn2c1,IC50,[1],660 nM
same,IC50,[2],520 nM
O=C(Nc1ccc(CCNc2nonc2/C(=N/O)Nc2ccc(F)c(Br)c2)cc1)c1ccc2nccn2c1,IC50,[3],> 10000 nM
same,IC50,[1],> 1000 nM
O=C(NCCCCCNc1nonc1/C(=N/O)Nc1ccc(F)c(Br)c1)c1ccc2nccn2c1,IC50,[1],858 nM
same,IC50,[2],670 nM
O=C(NCc1ccc(C(=O)N2CCC(CCNc3nonc3/C(=N/O)Nc3ccc(F)c(Br)c3)CC2)cc1)c1ccc2nccn2c1,IC50,[1],> 1000 nM
O=C(NCCCCCCNc1nonc1/C(=N/O)Nc1ccc(F)c(Br)c1)c1ccc2nccn2c1,IC50,[3],57.7 nM
same,IC50,[1],233 nM
same,IC50,[2],160 nM
same,Activity,A549 [4],inactive
same,Activity,A549 [5],inactive
same,inhibition,A549 [6],Dose-Dependent Effect
same,Activity,A549 [7],Active
same,Activity,A549 [8],Active
same,Activity,A549 [9],Dose-Dependent Effect
same,Activity,A549 [10],inactive
same,Activity,A549 [11],inactive
same,Activity,Danio rerio [12],Active
same,Activity,Danio rerio [13],Active
same,Activity,A549 [14],Dose-Dependent Effect
same,Activity,A549 [15],Dose-Dependent Effect
same,Activity,A549 [16],Dose-Dependent Effect
same,Activity,A549 [17],Active
same,Activity,A549 [18],Active
same,Activity,A549 [19],Active
same,Activity,A549 [20],Dose-Dependent Effect
same,Activity,A549 [21],Dose-Dependent Effect
same,Activity,A549 [22],Active
same,Activity,A549 [23],inactive
same,Activity,A549 [24],Active
same,bioavailability,[25],52.5%
same,AUC,[26],2530 ng·h/mL
same,clearance,[27],106 mL/min/kg
same,Vd,[28],11.5 L/kg
same,inhibition in vivo at 50 mg/kg,A549 [29],24.6%
same,inhibition in vivo at 100 mg/kg,A549 [30],40.2%
same,inhibition in vivo at 200 mg/kg,A549 [31],53.8%
same,inhibition in vivo at 100 mg/kg,A549 [32],64.3%
same,Activity,A549 [33],Active
same,Activity,[34],Non-Toxic
same,Activity,[35],Non-Toxic
same,Activity,A549 [36],Active
same,Activity,A549 [37],Active
same,Activity,A549 [38],Active
same,Activity,A549 [39],Active
same,IC50,A549 [40],5350 nM
O=C(c1ccc2nccn2c1)N1CCC(CCNc2nonc2/C(=N/O)Nc2ccc(F)c(Br)c2)CC1,IC50,[1],> 1000 nM
O=C(NCc1ccc(C(=O)N2CCC(CNc3nonc3/C(=N/O)Nc3ccc(F)c(Br)c3)CC2)cc1)c1ccc2nccn2c1,IC50,[1],> 1000 nM
NS(=O)(=O)NCCNc1nonc1/C(=N/O)Nc1ccc(F)c(Br)c1 [EPACADOSTAT],Activity,A549 [41],Active
same,Activity,A549 [21],inactive
same,IC50,A549 [40],61100 nM
same,IC50,A549 [42],34500 nM
